Measurements reported in patent US20250018019A1, “TREATMENT OF INTERFERON DRIVEN INFLAMMATION” (The Provost, Fellows, Foundation Scholars and the other …, priority 2023, published 2025).
Where a name gives a salt, the structure may show the parent alone.

Experiments:
BMDMs [1] = test: Seahorse XF Mito Stress Test (respirometry, OCR); assay type: cell-based, mouse; settings: BMDMs pre-treated 3 h, LPS 4 h
Description: All compounds used DMSO as a vehicle except for 4-hydroxy tamoxifen (EtOH), NAC (PBS), and AOAA for tracing experiments (Media). LPS was used at a concentration of 100 ng/ml for indicated timepoints (2, 3, 4, 6, 8, 24, 48 h). FHIN1 (10 or 20 μM), MMF (50 or 100 μM), DMF (25 μM), AOAA (5 mM), oligomycin (10 μM), CCCP (50 μM) NAC (1 mM), and IMT1 (10 μM) pre-treatments were performed for 3 h prior the addition of LPS. Cells were treated with valinomycin (10 nM) 15 mins before LPS stimulation. Anti-CD210 or IgG control (10 μg/ml) antibodies were added to cells 1 h prior to LPS stimulation. Recombinant mouse IL-10 protein (100 ng/ml) was added to cells at the same time as LPS. Cells were treated with IFN-B1 (220 ng/ml) for 3 h. Cells were treated with C-178 (1 μM) 1 h prior to LPS stimulation or transfection with 2′3′-cGAMP (1.5 μg/ml) for 4 hrs to achieve cGAS-STING activation. Cells were treated with ODN 2088 (1 μM) for 1 hr prior to LPS stimulation or transfection with CPG ODN 1826 (1.5 μg/ml) to achieve TLR9 activation. 3 different timepoints of 4-hydroxy tamoxifen (TAM) (600 nM or 2 μM) or EtOH treatment were performed-these are specified in the individual figure legends. For ‘48 h’ treatments EtOH/TAM was added on day 5 of 6 during the BMDM differentiation protocol. On day 6 they were plated with EtOH/TAM (left overnight) and treated the following day. […]

BMDMs [2] = test: Proteomic analysis of BMDMs; assay type: cell-based, mouse; settings: BMDMs pre-treated vs DMSO, LPS 4 h
Description: BMDMs (from 5 independent mice) were plated onto 10-cm dishes and treated as indicated. At the experimental endpoint, cells were washed with PBS on ice and centrifuged at 1500 rpm for 5 mins at 4° C. and frozen at -80° C. Cell pellets were lysed, reduced and alkylated in 50 μl of 6M Gu-HCl, 200 mM Tris-HCl PH 8.5, 10 mM TCEP, 15 mM Chloroacetamide by probe sonication and heating to 95° C. for 5 min. Protein concentration was measured by a Bradford assay and initially digested with LysC (Wako) with an enzyme to substrate ratio of 1/200 for 4 h at 37° C. Subsequently, the samples were diluted tenfold with water and digested with porcine trypsin (Promega) at 37° C. overnight. Samples were acidified to 1% TFA, cleared by centrifugation (16,000 g at RT) and approximately 20 μg of the sample was desalted using a Stage-tip. Eluted peptides were lyophilized, resuspended in 0.1% TFA/water and the peptide concentration was measured by A280 on a nanodrop instrument (Thermo). The sample was diluted to 2 μg/5 μl for subsequent analysis. The tryptic peptides were analysed on a Fusion Lumos mass spectrometer connected to an Ultimate Ultra3000 chromatography system (both Thermo Scientific) incorporating an autosampler. 2 μg of de-salted peptides were loaded onto a 50 cm emitter packed with 1.9 μm ReproSil-Pur 200 C18-AQ (Dr Maisch, Germany) using a RSLC-nano uHPLC systems connected to a Fusion Lumos mass spectrometer (both Thermo, UK). Peptides were separated by a 140 min linear gradient from 5% to 30% acetonitrile, 0.5% acetic acid. […] Raw files were analysed and quantified by searching against the Uniprot Mus Musculus database using DIA-NN 1.8 (https://github.com/[…]). […] Data were expressed as mean±standard error of the mean (SEM) unless stated otherwise. […] The proteomics cut-offs for analysis were a log2FC of 0.5 and a false discovery rate (FDR)<0.05, determined using t statistics. […] Overrepresentation analysis (ORA) of significant changes were assessed using Enrichr^4 and the Bioconductor package clusterProfiler 4.0 in R (version 3.6.1). […]

Row | Structure (SMILES) | basal respiration, ATP production and maximal respiration as measured by OCR (BMDMs [1]) | GDF15 protein (proteomics) (BMDMs [2]) | SLC25A39 protein (proteomics) (BMDMs [2])
1 | COC(=O)/C=C/C(=O)OC [DMF, dimethyl fumarate] | no effect | one of the most significantly increased proteins | –
2 | CCOC(=O)[C@@]12CCCC=C1N(Cc1ccc(-c3ccccc3)cc1)C(=O)[C@H]2CC(=O)NC [FHIN1, Fumarate hydratase-IN-1] | impaired | one of the most significantly increased proteins | increased
